From US20050113283A1, “Methods of treating conditions associated with an EDG-4 receptor” (priority 2002, published 2005)
Values belong to the compound of their own block, whether it stands above or below them.

Experiments:
human Edg-4 receptor [1] = test: Calcium mobilization assay (FLIPR), HTC rat hepatoma cells transfected with human Edg-4; format: cell-based; details: antagonists; Edg-4 relative to other Edg receptors
Source text: (§1) LPA receptors such as Edg-4, couple to calcium effector pathways, and result in increases in intracellular calcium following receptor activation (An et al., Molecular Pharmacology, 54:881-888, 1998, incorporated herein by reference). This biological response lends itself to a very efficient, high-throughput screen using a Fluorescence Imaging Plate Reader (FLIPR; Molecular Devices, Sunnyvale, Calif.). The FLIPR system is a real-time, cell-based assay system with continuous fluorescence detection using a cooled CCD camera. The FLIPR system was used to developing an Edg-4 receptor screen. Rat hepatoma cells stably expressing Edg-4 receptor were plated on 384-well plates and loaded with a calcium dye loading kit (Molecular Devices, Sunnyvale, Calif.) for 1 hour at room temperature. Cells were then placed on the FLIPR^354 (Molecular Devices, Sunnyvale, Calif.) and excited by an argon laser at 488 nm. The data for the entire 384-well plate was updated every second. An integrated robotic pipettor allowed for simultaneous compound addition into each individual well in the plate.

PLA2-II = molecular target: T1, PLA2-II (Crotalus atrox, UniProt P00624); test: Enzyme assay Phospholipase PLA2-II; format: biochemical; details: 300 μM; significance >50%
T1 construct: Source: Crotalus atrox; from tissue
T1 sequence (P00624 17-138): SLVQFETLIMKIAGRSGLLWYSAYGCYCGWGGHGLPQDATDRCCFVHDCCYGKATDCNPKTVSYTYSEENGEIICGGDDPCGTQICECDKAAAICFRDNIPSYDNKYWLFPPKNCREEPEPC
Method: 8. Phospholipase PLA2-II (Katsumata et al., 1986, Anal. Biochem. 154:676-681).
Substrate: 0.03 μCi 1 -Palmitoyl-2-[1-^14C]oleoyl-3-phosphatidylcholine
Pre-Incubation Time/Temp: 5 minutes at 37° C.
Incubation Time/Temp: 5 minutes at 37° C.
Incubation Buffer: 0.1M glycine-NaOH, […], pH 9.0
Quantitation Method: Quantitation of [^14C]oleate
Significance Criteria: >50% of max stimulation or inhibition

PLC = molecular target: T2, PLC (Bacillus cereus, UniProt P09598); test: Enzyme assay Phospholipase PLC; format: biochemical; details: 10 μM
T2 construct: Source: Bacillus cereus; host or cells: Bacillus cereus
Method: 9. Phospholipase PLC (Hergenrother et al, 1995, Anal. Biochem. 229:313-316).
Substrate: 400 μM 1,2-Dihexanoyl sn-glycerol-3-phosphocholine
Pre-Incubation Time/Temp: 10 minutes at 37° C.
Incubation Time/Temp: 5 minutes at 37 ° C.
Incubation Buffer: 0.1 M 3,3-dimethylglutaric acid, pH 7.3
Quantitation Method: Spectrophotometric quantitation of phosphorylcholine

Potassium channel [KATP] = molecular target: T3, Potassium channel [KATP] (Cricetus cricetus, UniProt Q09427); test: Radioligand binding Potassium Channel [KATP]; parameters: species or system Syrian hamster; details: 10 μM; significance ≧50%
T3 construct: endogenous in cells; host or cells: HIT-T15 Syrian hamster pancreatic beta cells
Method: Source: Syrian hamster pancreatic beta cells HIT-T15
Ligand: 5 nM ^3H Glyburide
Incubation Time/Temp: 2 hours at 25° C.
Incubation Buffer: 50 mM MOPS, 0.1 mM CaCl2, pH 7.4
NonSpecific Ligand: 10 μM Glyburide
Quantitation Method: Radioligand Binding
Significance Criteria: ≧50% of max stimulation or inhibition

Edg-1 = molecular target: T4, Edg-1 (Homo sapiens, UniProt P21453); test: Calcium mobilization assay (FLIPR), HTC cells expressing Edg 1; format: cell-based; details: inhibition
T4 construct: expressed in transfected cells; host or cells: HTC rat hepatoma cells (from the earlier reading)

Edg-2 = molecular target: T5, Edg-2 (Homo sapiens, UniProt Q92633); test: Calcium mobilization assay (FLIPR), HTC cells expressing Edg 2; format: cell-based; details: inhibition
T5 construct: expressed in transfected cells; host or cells: HTC rat hepatoma cells (from the earlier reading)

Edg-3 = molecular target: T6, Edg-3 (Homo sapiens, UniProt Q99500); test: Calcium mobilization assay (FLIPR), HTC cells expressing Edg 3; format: cell-based; details: inhibition
T6 construct: expressed in transfected cells; host or cells: HTC rat hepatoma cells (from the earlier reading)

human Edg-4 receptor [2] = molecular target: T7, human Edg-4 receptor (Homo sapiens, UniProt Q9HBW0); test: Calcium mobilization assay (FLIPR), HTC rat hepatoma cells transfected with human Edg-4; format: cell-based
T7 construct: IC50 Edg-4; other: agonist, calcium mobilization; potency relative to compound 101; calcium response (agonist)
Source text: as §1

Edg-5 = molecular target: T8, Edg-5 (Homo sapiens, UniProt O95136); test: Calcium mobilization assay (FLIPR), HTC cells expressing Edg 5; format: cell-based; details: inhibition
T8 construct: expressed in transfected cells; host or cells: HTC rat hepatoma cells (from the earlier reading)

Edg-6 = molecular target: T9, Edg-6 (Homo sapiens, UniProt O95977); test: Calcium mobilization assay (FLIPR), HTC cells expressing Edg 6; format: cell-based; details: inhibition
T9 construct: expressed in transfected cells; host or cells: HTC rat hepatoma cells (from the earlier reading)
T9 sequence (O95977 1-384): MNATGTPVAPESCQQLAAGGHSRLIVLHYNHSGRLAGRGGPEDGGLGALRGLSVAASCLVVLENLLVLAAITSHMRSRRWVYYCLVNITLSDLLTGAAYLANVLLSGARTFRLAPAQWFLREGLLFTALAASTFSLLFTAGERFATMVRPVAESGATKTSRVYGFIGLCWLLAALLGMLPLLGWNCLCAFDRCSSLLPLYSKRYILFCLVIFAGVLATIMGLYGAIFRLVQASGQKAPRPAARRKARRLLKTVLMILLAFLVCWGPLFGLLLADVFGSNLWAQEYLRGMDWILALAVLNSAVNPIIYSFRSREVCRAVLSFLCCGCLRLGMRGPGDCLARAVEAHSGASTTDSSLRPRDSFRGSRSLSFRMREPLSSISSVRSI

Edg-7 = molecular target: T10, Edg-7 (Homo sapiens, UniProt Q9UBY5); test: Calcium mobilization assay (FLIPR), HTC cells expressing Edg 7; format: cell-based; details: inhibition, calcium mobilization
T10 construct: expressed in transfected cells; host or cells: HTC rat hepatoma cells (from the earlier reading)
T10 sequence (Q9UBY5 1-353): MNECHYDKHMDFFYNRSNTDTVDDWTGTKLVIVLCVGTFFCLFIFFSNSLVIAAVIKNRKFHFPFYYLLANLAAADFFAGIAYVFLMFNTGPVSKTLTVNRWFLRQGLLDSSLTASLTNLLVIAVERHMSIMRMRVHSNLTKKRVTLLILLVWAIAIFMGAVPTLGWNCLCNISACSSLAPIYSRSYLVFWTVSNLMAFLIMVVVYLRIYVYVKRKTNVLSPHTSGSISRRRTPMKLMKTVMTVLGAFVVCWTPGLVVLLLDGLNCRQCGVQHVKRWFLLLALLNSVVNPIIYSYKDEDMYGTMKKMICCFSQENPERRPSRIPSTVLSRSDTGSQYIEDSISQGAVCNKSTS

Edg-8 = molecular target: T11, Edg-8 (Homo sapiens, UniProt Q9H228); test: Calcium mobilization assay (FLIPR), HTC cells expressing Edg 8; format: cell-based; details: inhibition
T11 construct: expressed in transfected cells; host or cells: HTC rat hepatoma cells (from the earlier reading)

HUVEC cells = test: Migration assay, SIP induced chemotaxis; format: cell-based, human; details: FIG. 10
Method: Cells were plated in a 24 well format using Fluoroblok filter insert plates ([…]) or Fluoroblok matrigel coated filter insert plates (Becton Dickinson, San Diego, Calif.). The assay was a modified Boyden Chamber assay in which a cell suspension (1 ×10^5 cells/ml) was prepared in serum free medium and added to the top chamber. LPA or SIP (doses ranged from 0.1-10 μM in serum free medium) was added to the bottom chamber. Following a 20-24 hour incubation period, the number of cells migrating or invading into the lower chamber was quantitated by transferring the filter insert into a fresh 24-well plate containing 4 μg/ml calcein AM (Molecular Probes, Sunnyvale, Calif.) in Hank's Balanced Salt Solution and staining for one hour.
Detection was via fluorescent readout at 450 nm excitation/530 nm emission using a fluorimeter. The level of fluorescence correlated with cell number.

rat Edg-4 receptor = test: LPA induced calcium mobilization, HTC cells transfected with pooled rat Edg-4 clones; format: cell-based; details: pooled HTC population, FIG. 12
Source text: as §1

mouse Edg-4 receptor = molecular target: T12, mouse Edg-4 receptor (Mus musculus, UniProt Q9JL06); test: LPA induced calcium mobilization, HTC cells transfected with pooled mouse Edg-4 clones; format: cell-based; details: pooled HTC population, FIG. 13
T12 construct: expressed in transfected cells; host or cells: HTC rat hepatoma cells, pooled population
Source text: as §1

T7 sequence (Q9HBW0 1-340 limits assumed): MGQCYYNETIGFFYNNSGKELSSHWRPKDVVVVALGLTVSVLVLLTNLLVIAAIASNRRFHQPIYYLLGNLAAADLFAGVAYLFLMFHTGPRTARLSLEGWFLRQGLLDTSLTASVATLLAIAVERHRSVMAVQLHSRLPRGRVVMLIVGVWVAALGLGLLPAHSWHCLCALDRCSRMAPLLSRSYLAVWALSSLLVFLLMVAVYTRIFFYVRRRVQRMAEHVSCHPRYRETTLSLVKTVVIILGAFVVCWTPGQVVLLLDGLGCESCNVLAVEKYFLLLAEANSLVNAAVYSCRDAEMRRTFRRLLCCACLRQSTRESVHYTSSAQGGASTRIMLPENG
T2 sequence (P09598 39-283 limits assumed): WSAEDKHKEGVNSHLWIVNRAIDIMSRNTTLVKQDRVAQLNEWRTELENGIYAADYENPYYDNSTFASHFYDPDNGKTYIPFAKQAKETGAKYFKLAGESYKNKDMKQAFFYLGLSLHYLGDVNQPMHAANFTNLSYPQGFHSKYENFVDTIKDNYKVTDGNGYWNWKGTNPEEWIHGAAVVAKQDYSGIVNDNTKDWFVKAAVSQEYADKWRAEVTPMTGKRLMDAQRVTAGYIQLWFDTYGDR
T11 sequence (Q9H228 whole entry): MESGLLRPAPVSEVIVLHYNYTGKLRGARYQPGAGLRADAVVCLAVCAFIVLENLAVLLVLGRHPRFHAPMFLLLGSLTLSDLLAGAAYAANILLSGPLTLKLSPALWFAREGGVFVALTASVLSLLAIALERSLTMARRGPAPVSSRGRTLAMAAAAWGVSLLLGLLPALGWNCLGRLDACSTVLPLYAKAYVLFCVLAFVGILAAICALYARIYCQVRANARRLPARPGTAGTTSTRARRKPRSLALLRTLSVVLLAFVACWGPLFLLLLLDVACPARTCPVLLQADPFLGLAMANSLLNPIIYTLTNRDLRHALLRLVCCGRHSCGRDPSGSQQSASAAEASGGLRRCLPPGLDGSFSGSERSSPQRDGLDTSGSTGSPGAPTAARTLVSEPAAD
T6 sequence (Q99500 whole entry): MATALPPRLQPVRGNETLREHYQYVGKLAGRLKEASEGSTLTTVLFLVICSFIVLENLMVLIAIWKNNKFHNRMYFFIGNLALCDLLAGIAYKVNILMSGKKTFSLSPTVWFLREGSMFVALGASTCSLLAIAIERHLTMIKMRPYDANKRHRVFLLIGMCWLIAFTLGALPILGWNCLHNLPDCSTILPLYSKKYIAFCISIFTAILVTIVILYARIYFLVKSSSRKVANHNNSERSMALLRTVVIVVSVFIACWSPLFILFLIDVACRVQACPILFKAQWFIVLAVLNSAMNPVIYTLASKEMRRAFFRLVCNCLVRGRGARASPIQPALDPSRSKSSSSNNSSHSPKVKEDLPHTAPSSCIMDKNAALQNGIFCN
T3 sequence (Q09427 whole entry): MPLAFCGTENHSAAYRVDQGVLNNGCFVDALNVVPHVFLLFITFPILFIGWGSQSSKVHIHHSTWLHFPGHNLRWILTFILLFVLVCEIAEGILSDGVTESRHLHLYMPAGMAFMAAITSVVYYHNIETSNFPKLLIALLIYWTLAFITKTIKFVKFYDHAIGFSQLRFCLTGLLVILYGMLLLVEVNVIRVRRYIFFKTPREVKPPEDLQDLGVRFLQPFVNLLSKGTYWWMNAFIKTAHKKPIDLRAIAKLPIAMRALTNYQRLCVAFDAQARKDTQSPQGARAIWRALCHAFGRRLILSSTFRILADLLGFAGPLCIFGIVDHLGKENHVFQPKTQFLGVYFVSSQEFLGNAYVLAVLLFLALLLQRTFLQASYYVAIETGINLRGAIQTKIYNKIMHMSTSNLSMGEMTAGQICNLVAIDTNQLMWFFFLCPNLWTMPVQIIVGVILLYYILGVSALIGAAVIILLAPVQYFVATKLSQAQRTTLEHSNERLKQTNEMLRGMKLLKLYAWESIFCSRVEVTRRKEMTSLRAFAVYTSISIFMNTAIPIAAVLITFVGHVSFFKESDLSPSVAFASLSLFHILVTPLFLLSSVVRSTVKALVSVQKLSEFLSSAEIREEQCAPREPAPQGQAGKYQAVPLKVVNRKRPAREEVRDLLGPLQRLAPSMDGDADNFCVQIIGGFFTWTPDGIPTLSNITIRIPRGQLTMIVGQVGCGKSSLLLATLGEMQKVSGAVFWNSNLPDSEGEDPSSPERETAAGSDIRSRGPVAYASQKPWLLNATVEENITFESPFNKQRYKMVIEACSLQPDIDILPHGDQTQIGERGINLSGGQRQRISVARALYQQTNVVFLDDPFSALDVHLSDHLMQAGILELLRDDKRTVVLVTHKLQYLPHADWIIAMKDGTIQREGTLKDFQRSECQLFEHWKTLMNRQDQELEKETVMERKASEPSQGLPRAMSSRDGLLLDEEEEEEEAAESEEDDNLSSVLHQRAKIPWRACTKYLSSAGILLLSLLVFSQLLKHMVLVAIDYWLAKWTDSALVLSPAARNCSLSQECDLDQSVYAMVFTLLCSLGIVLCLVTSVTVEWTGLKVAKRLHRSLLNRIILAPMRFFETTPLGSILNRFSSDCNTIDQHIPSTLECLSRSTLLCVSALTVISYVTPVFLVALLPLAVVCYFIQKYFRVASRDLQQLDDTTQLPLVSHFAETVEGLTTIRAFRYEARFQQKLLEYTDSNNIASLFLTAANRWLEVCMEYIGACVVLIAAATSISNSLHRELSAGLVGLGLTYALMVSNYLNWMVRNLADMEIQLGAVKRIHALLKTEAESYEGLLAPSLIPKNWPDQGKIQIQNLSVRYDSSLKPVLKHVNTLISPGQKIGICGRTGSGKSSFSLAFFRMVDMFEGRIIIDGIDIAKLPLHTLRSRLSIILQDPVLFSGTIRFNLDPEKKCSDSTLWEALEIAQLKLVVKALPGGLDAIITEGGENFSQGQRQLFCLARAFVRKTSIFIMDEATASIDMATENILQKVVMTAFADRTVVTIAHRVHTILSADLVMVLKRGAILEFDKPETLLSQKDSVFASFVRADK
T8 sequence (O95136 whole entry): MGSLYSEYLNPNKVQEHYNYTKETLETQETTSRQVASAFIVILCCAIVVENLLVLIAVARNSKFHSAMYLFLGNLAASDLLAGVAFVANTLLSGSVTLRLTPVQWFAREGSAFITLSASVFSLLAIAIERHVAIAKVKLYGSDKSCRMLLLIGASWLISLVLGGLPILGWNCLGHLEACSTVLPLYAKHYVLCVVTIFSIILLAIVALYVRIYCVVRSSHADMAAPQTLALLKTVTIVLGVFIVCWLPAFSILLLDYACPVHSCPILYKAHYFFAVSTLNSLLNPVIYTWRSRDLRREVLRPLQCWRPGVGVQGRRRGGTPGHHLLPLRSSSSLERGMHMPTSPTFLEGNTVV
T4 sequence (P21453 whole entry): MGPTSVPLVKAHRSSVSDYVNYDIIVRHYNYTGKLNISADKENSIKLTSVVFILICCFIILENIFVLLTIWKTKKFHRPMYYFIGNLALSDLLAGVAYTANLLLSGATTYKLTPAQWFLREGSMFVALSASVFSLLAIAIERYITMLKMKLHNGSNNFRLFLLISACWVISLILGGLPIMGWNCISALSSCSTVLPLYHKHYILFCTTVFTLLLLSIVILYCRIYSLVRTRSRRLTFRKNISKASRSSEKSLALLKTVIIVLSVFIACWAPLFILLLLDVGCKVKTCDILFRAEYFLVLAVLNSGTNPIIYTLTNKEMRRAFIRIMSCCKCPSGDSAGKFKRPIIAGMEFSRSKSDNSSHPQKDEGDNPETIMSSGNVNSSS
T12 sequence (Q9JL06 whole entry): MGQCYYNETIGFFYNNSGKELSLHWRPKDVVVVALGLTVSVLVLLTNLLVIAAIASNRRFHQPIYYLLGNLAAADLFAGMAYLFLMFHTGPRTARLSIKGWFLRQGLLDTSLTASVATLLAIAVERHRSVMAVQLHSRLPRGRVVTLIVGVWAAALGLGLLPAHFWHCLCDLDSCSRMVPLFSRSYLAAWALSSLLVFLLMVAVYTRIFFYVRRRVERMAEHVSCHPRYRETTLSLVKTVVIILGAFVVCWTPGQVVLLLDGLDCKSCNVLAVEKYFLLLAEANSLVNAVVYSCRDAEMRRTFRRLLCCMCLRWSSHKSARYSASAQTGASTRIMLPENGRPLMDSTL
T5 sequence (Q92633 whole entry): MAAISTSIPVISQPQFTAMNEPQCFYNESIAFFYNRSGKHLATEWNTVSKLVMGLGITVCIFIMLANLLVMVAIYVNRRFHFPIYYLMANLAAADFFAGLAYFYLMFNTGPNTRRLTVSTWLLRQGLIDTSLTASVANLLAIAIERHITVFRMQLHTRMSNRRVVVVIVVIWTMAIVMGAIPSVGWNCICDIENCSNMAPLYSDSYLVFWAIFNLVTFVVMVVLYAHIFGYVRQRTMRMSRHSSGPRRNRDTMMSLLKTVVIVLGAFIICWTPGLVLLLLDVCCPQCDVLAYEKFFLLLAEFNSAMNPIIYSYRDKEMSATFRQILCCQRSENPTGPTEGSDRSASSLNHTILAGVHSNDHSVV

melting point: 281 °C
Compound: O=C1NN=C(c2ccccc2)C(c2c[nH]c3ccccc23)N1 (single isomer, unassigned; (+)) [(+)-121, (+)-5-(1H-Indol-3-yl)-6-phenyl-4,5-dihydro-2H-[1,2,4]triazin-3-one]

Compound: O=C(CC(=O)C(F)(F)F)Nc1cc(-c2ccccc2)n[nH]1 [Compound 101, 4,4,4-trifluoro-3-oxo-N-(5-phenyl-2H-pyrazol-3-yl)-butyramide]
Fold-selectivity for Edg-4 (IC50) (human Edg-4 receptor [1]): >29.9
activity at PLA2-II (PLA2-II): no significant activity
activity at PLC (PLC): no significant activity
activity at Potassium channel [KATP] (Potassium channel [KATP]): no significant activity

IC50 (Edg-1): > 20 µM
IC50 (Edg-2): > 20 µM
IC50 (Edg-3): > 20 µM
IC50 (human Edg-4 receptor [2]; inhibition, calcium mobilization): 0.32 µM
Fold-selectivity for Edg-4 (IC50) (human Edg-4 receptor [1]): >62.5
IC50 (Edg-5): > 20 µM
IC50 (Edg-6): > 20 µM
IC50 (Edg-7): > 20 µM
IC50 (Edg-8): > 20 µM
Compound: O=C(CC(=O)C(F)(F)F)Nc1cc(-c2ccc(Cl)c(Cl)c2)n[nH]1 [Compound 103, N-[5-(3,4-dichloro-phenyl)-2H-pyrazol-3-yl]4,4,4-trifluoro-3-oxo-butyramide]
inhibition of SIP induced chemotaxis (HUVEC cells): did not inhibit

potency relative to compound 101 (human Edg-4 receptor [2]; dose response curve, FIG. 2): less potent than compound 101
Compound: COc1ccc(-c2cc(NC(=O)CC(=O)C(F)(F)F)[nH]n2)cc1 [Compound 105, 4,4-4-trifluoro-N-[5-(4-methoxy-phenyl)-2-pyrazol-3-yl]-3-oxo-butyramide]

inhibition of LPA-induced calcium mobilization, human Edg-4 (human Edg-4 receptor [2]; clonal HTC cell line, FIG. 11): dose dependent inhibition
inhibition of LPA-induced calcium mobilization, mouse Edg-4 (mouse Edg-4 receptor): dose dependent inhibition
Compound: O=C(CC(=O)C(F)(F)F)Nc1cc(-c2ccc(F)cc2)n[nH]1 [Compound 107]
inhibition of LPA-induced calcium mobilization, rat Edg-4 (rat Edg-4 receptor): dose dependent inhibition
